# From US12492403B2, “Aptamers and the use thereof in the treatment of cancer” (FUNDACIÓN PARA LA INVESTIGACIÓN BIOMÉDICA DEL HOSPITAL …, priority 2018, dated 2025)
# B1: apMNK2F: precursor (parental) aptamer against MNK1, described in Garcia-Recio, Pinto-Diez et al. 2016 (nucleic acid)
# DNA: GCGGATGAAGACTGGTGTGGGGTGGGCGGGCGGGGGTGGGGGTGGTATGGCGCGTTGGCCCTAAATACGAGCAAC
# modifications: DNA, backbone and methylation of C not given here; further chemistry not fully specified
# Experiments:
# [1] = test system: MDA-MB-231 cells; test: MTT activity assay, aptamers transfected with Lipofectamine 2000; type: cell-based, human; settings: MDA-MB-231, aptamer 250 nM, 48 hours after transfection
# Description: (§1) FIG. 3. Effect of the aptamers on MTT activity of MCF7 and MDA-MB-231 cells. The cells were seeded in 96-well plates at a density of 10^4 cells/well. After 16-24 hours, they were transfected with aptamers apMNKQ1, apMNKQ2, apMNKQ3, and apMNKQ4 at 250 nM for 48 hours after which MTT activity assays were performed. The bars represent the mean±SEM of 3-6 independent experiments (*p<0.05, **p<0.01, and ***p<0.001 with respect to the control aptamer AT).
# (§2) FIGS. 8A-8C. Effect of aptamer apMNKQ2 on MTT activity of breast cell lines. MCF7, MDA-MB-231, and MDA-MB-468 cells were seeded in 96-well plates at a density of 10^4 cells/well. […] The graphs represent the means±SEM of 3 independent experiments (*p<0.05, **p<0.01, and ***p<0.001 with respect to the control AT).
# (§3) The Lipofectamine™ 2000 system (Invitrogen, USA) was used to treat cells with the different aptamers. To prepare the DNA-lipofectamine complex, lipofectamine and DNA were separately diluted in opti-MEM (Gibco, USA) and left to incubate at room temperature for 5 minutes. They were then mixed to form lipofectamine-DNA complexes and incubated for 20 minutes at room temperature. Finally, the mixture was added to the cells that had been washed twice with antibiotic-free medium to prevent the interference thereof with lipofectamine. The cells were incubated at 37° C. for 5 hours, after which the reagent was removed and a complete medium was added.
# (§4) MTT activity. The cells were seeded in 96-well plates and after having been transfected, the culture medium was removed and 100 μL/well of MTT at 1 mg/ml in culture medium were added. The plates were incubated for 90 minutes in an incubator with a moisture-saturated environment at 37° C. and 5% CO2/[…] and 100 μL/well of a lysis solution (10% SDS and 10 mM HCl) were added for dissolving the crystals. After 48 hours, the reduction of MTT was determined by means of spectrophotometry in Infinite F200 (TECAN, Switzerland) at 540 nm.
# (§5) The results were expressed as the percentage of viability with respect to the control or in absorbance units.
# [2] = test system: MCF7 cells; test: as above; type: cell-based, human; settings: MCF7, aptamer 250 nM, 48 hours after transfection
# Description: as §1, §2, §3, §4, §5
# [3] = test system: MNK1; test: Recognition of the two isoforms of MNK1 by precursor and truncated aptamers; type: binding
# [4] = test system: AKT; test: Western blot of phosphorylation, combined therapy study; type: cell-based, human; settings: MDA-MB-231 and MCF7 cells, 24 hours
# Description: (§6) FIG. 22A & 22B. Combined therapy studies of apMNKQ2 and everolimus. […] The different antibodies used are indicated.
# (§7) Seventy-two hours after treatment, MTT activity was measured.
# [5] = test system: eIF4E; test: as above; type: cell-based, human; settings: MDA-MB-231 and MCF7 cells, 24 hours
# Description: as §6, §7
# [6] = test system: ribosomal protein S6; test: as above; type: cell-based, human; settings: MDA-MB-231 and MCF7 cells, 24 hours
# Description: as §6, §7
# [7] = test system: MDA-MB-231 cells; settings: cells with IC50 greater than 1 nM are considered resistant; cited from earlier work
# [8] = test system: MCF7 cells; settings: cells with IC50 greater than 1 nM are considered resistant; cited from earlier work
# [9] = test system: DNase I; settings: 1 unit of DNase I, 5 minutes at 37° C., same assay conditions (Garcia-Recio, Pinto-Diez et al. 2016); cited from earlier work
Molecule,inhibition of MTT activity [1],effect on MTT activity [2],"recognition of the two isoforms of MNK1 (MNK1a, MNK1b) [3]",other results
"5′-GGGTGGTATGGCGCGTTGGCCC-3′ (DNA, backbone and methylation of C not given here; further chemistry not fully specified) [apMNKQ4, 22-nucleotide aptamer designed from apMNK2FT]",about 15%,partial effect,–,–
"5′-TTTTTGGGGTGGGCGGGCGGGGGTGGGGGTGGTATGGCGCGTTGGCCC-3′ (DNA, backbone and methylation of C not given here; further chemistry not fully specified) [apMNK2FT, truncated 48-nucleotide aptamer derived from precursor aptamer apMNK2F]",–,–,recognized both isoforms in a similar manner,–
"5′GGGTGGGGGTGGT-3′ (DNA, backbone not given here; further chemistry not fully specified) [apMNKQ3, 13-nucleotide aptamer designed from apMNK2FT]",about 15%,partial effect,–,–
"5′TGGGGTGGGCGGGCGGGG-3′ (DNA, backbone and methylation of C not given here; further chemistry not fully specified) [apMNKQ1, 18-nucleotide aptamer designed from apMNK2FT based on G-quadruplex formation]",30%,partial effect,–,–
"CO[C@H]1C[C@@H]2CC[C@@H](C)[C@@](O)(O2)C(=O)C(=O)N2CCCC[C@H]2C(=O)O[C@H]([C@H](C)C[C@@H]2CC[C@@H](OCCO)[C@H](OC)C2)CC(=O)[C@H](C)/C=C(\C)[C@@H](O)[C@@H](OC)C(=O)[C@H](C)C[C@H](C)/C=C/C=C/C=C/1C [everolimus, 40-O-(2-hydroxyethyl) derivative of sirolimus, reference compound]",–,–,–,phosphorylation of AKT [4]: increased; phosphorylation of eIF4E [5]: increased; phosphorylation of ribosomal protein S6 (dependent on mTOR activity) [6]: inhibiting mTOR; sensitivity of the cell line to the drug [7]: resistant; sensitivity of the cell line to the drug [8]: resistant
B1,–,–,higher affinity for MNK1b,stability [9]: 0%
